Test results from patent US20120142656A1, “BUCCAL APPLICATION SYSTEM COMPRISING 17A-ESTRADIOL” (BAYER PHARMA AKTIENGESELLSCHAFT, priority 2009, published 2012).

Legend:
Format in all cases: in vivo
[1] = system: postmenopausal or ovarectomized women; experiment: tolerability: monitoring of undesired events and laboratory investigations in clinical study; conditions: 0.4 mg buccal tablet, versus placebo group
Method: Hot flashes were recorded before the beginning of treatment and on one of the last 3 days of treatment week 4. This was carried out according to subjective criteria (number and severity of the events) using patient diaries and objectively by continuous measurement of the skin temperature. Moreover, the tolerability of the treatment regime was determined by monitoring of undesired events and standardized laboratory investigations.

[2] = system: postmenopausal or ovarectomized women; experiment: endometrial thickness by transvaginal ultrasound in clinical study; conditions: 0.4 mg buccal tablet
Method: Hot flashes were recorded before the beginning of treatment and on one of the last 3 days of treatment week 4. This was carried out according to subjective criteria (number and severity of the events) using patient diaries and objectively by continuous measurement of the skin temperature. In addition, the measurement of the endometrial thickness was carried out by transvaginal ultrasound investigations.

[3] = system: postmenopausal or ovarectomized women; experiment: double-blind, randomized crossover clinical study: hot flashes (patient diaries, skin temperature); conditions: 0.4 mg buccal tablet
Method: Hot flashes were recorded before the beginning of treatment and on one of the last 3 days of treatment week 4. This was carried out according to subjective criteria (number and severity of the events) using patient diaries and objectively by continuous measurement of the skin temperature.

endometrial thickness measured by transvaginal ultrasound [2]: not significantly altered
SMILES: C[C@]12CC[C@@H]3c4ccc(O)cc4CC[C@H]3[C@@H]1CC[C@H]2O [17α-estradiol]
side-effect profile [1]: comparable
number of hot flashes per 24 h ([3]; after treatment for 4 weeks, before treatment 11.9±2.1, patient diaries): 3.1±1.8 per 24 h
effect on number and intensity of hot flashes ([3]; drug group versus placebo): rapid reduction of the number and intensity of hot flashes
